The nature of data set [1]: GI S9 stability (Ex. Z), rat intestinal S9. Format: in vitro ADME. As to conditions: pooled intestinal S9 fractions; rat intestinal S9, 1.0 mg/mL protein, 2 μM substrate, pH 7.4; read-out: GIS9 Rat T½ (per Ex. Z). On the procedure: (§1) Example Z: GI S9 stability data:
(§2) Stock solutions of test compounds in dimethyl sulfoxide (DMSO) having a final concentration of 10 mM were prepared and used in all experiments. Sekisui XenoTech (Kansas City, KS) provided pooled intestinal S9 fractions. All other chemicals were purchased from Sigma-Aldrich (St. Louis, MO) or VWR (West Chester, PA). Internal Standard/Quench (IS/Q) used to stop reactions was 100 nM labetalol in (by volume) methanol (10%) and acetonitrile (90%).
(§3) Stability in Intestinal S9 Fractions: Duplicate aliquots of test compound or positive control substrate were added to S9 stock diluted with phosphate buffered saline (137 mM NaCl, 2.7 mM KCl, 10 mM phosphate buffer), pH 7.4, to obtain a protein concentration of 1.0 mg/mL. The metabolic reactions were initiated by the addition of the substrates to the S9 reaction mixture to a final concentration of 2 μM. At 0, 10, 20, 30, 60 and 120 min, 25 μL aliquots of the reaction mixture were transferred to plates containing 225 μl of IS/Q solution. After quenching, the plates were centrifuged at 3000×g for 30 minutes. 150 μL aliquots of each supernatant were dried down then reconstituted with 300 μL water. Aliquots (10 μL) of the prepared samples were analyzed on a Thermo Q-Exactive mass spectrometer as described below.
(§4) Liquid Chromatography—Mass Spectrometry: Quantification of test compounds and control substrate was performed by analyte/internal standard peak area ratio (PAR) values measured on a Thermo Q-Exactive mass spectrometer coupled to a Dionex UltiMate 3000 HPLC with a Leap Technologies HTC PAL autosampler. The column used for analysis was a Waters Acquity BEH C18 (1.7 μm particle size, 2.1×50 mm). Mobile phase A consisted of 0.1% (v/v) formic acid in water. Mobile phase B consisted of 0.1% (v/v) formic acid in acetonitrile. Elution of analytes was achieved by a series of linear gradients varying the proportions of A and B. The mass spectrometer was calibrated on a weekly basis and mass tolerance of 5 ppm was used.
(§5) Metabolic stabilities in S9 fractions were determined by measuring the rates of disappearance of test compound and positive control substrate.
(§6) Data (% of substrate remaining) were plotted on a semi-log scale and fitted using an exponential decline model:
(§7) Where Ct—% of substrate remaining at time=t; C0—% of substrate remaining at time=0; t—time; T½—half-life The Half-life (T½) is determined by the following equation: […]
(§8) Assuming a first-order reaction, the slope (k) is extrapolated from the aforementioned plotted data.

A short description of data set [2]: GI S9 stability (Ex. Z), human intestinal S9. Type of data set: in vitro ADME. As to conditions: pooled intestinal S9 fractions; human intestinal S9, 1.0 mg/mL protein, 2 μM substrate, pH 7.4; read-out: GIS9 Human T½ (per Ex. Z). The protocol: as §1, §2, §3, §4, §5, §6, §7, §8
Data set [3] deals with Respiratory syncytial virus recombinant with luciferase (RSV-Luc5) in NHBE cells. The data set can be described thus: NHBE RSV-Luc5 384-well Assay (RSV FLUC NHBE 384 V2, Ex. W). As to conditions: human respiratory syncytial virus, 72 h, read-out: EC50 RSV FLUC NHBE 384 V2 (per Ex. W). Type of data set: cell-based. From the text:
Example W: NHBE RSV-Luc5 384-well Assay (EC50 RSVFLUC NHBE-384)
Normal Human Bronchial Epithelial (NHBE) cells were purchased from Lonza (Walkersville, MD Cat #CC2540) and maintained in BEGM Bronchial Epithelial Cell Growth Medium BulletKit (Lonza CC-3170).
Cells were thawed, expanded, and were used for experiments at passage 2. Respiratory syncytial virus recombinant with luciferase (RSV-Luc5) (≥1×10^7 Infectious Units/mL (IU/mL) determined by TCID50) was purchased from Microbiologics (Saint Cloud, MN). Viral replication was determined in NHBE cells in the following manner.
Compounds are prepared in 100% DMSO in 384-well polypropylene plates (Greiner, Monroe, NC, Cat #784201) with 8 compounds per plate in grouped replicates of 4 at 10 serially diluted concentrations (1:3). The serially diluted compounds were transferred to low dead volume Echo plates (Labcyte, Sunnyvale, CA, Cat #LP-0200).
The test compounds were spotted to 384-well assay plates (Greiner, Monroe, NC, Cat#781091) at 200 nL per well using an Echo acoustic dispenser (Labcyte, Sunnyvale, CA). NHBE cells were harvested and suspended in BEGM Bronchial Epithelial Cell Growth Medium BulletKit and seeded to the pre-spotted assay plates at 5,000 cells per well in 30 μL. RSV-Luc5 virus was diluted in BEGM Bronchial Epithelial Cell Growth Medium BulletKit at 500,000 Infectious Units (IU) per mL and 10 μL per well was added to the assay plates containing cells and compounds, for an MOI of 1. The assay plates were incubated for 3 days at 37° C. and 5% CO2. At the end of incubation, One-Glo reagent (Promega, Madison, WI, Cat #E6120) was prepared. The assay plates and One-Glo reagent were equilibrated to room temperature for at least 15 minutes. 40 μL per well of One-Glo reagent was added and the plates were incubated at room temperature for 15 minutes before reading the luminescence signal on an EnVision multimode plate reader (Perkin Elmer, Waltham, MA). Remdesivir was used as positive control and DMSO was used as negative control. Values were normalized to the positive and negative controls (as 0% and 100% replication, respectively) and data was fitted using non-linear regression analysis by Gilead's dose response tool. The EC50 value for each compound was defined as the concentration reducing the viral replication by 50%.

From patent US20240199676A1, “ANTIVIRAL COMPOUNDS AND METHODS OF MAKING AND USING THE SAME” (Gilead Sciences, Inc., priority 2022, published 2024) come the findings set out here.

The structures appear in SMILES notation.

With `CCC(CC)C(=O)OC[C@@]1(C#N)O[C@@H](c2ccc3c(N)ncnn23)[C@H](O)[C@@H]1O` [Compound 9, ((2R,3S,4R,5S)-5-(4-aminopyrrolo[2,1-f][1,2,4]triazin-7-yl)-2-cyano-3,4-dihydroxytetrahydrofuran-2-yl)methyl 2-ethylbutanoate], the values for the half-life at 2 μM in data set [1] and in data set [2] were 23 min and 55 min, respectively. Also, the half-maximal effective concentration (EC50) in data set [3] is 9.47 µM.

In the case of `CC(C)(C)C(=O)OC[C@@]1(C#N)O[C@@H](c2ccc3c(N)ncnn23)[C@H](O)[C@@H]1O` [Compound 10, ((2R,3S,4R,5S)-5-(4-aminopyrrolo[2,1-f][1,2,4]triazin-7-yl)-2-cyano-3,4-dihydroxytetrahydrofuran-2-yl)methyl pivalate], the values for the half-life at 2 μM in data set [1] and in data set [2] were 53 min and 124 min, respectively. In addition, the EC50 in data set [3] turned out to be 7.87 µM.

Turning to `CCC(CC)C(=O)Nc1ncnn2c([C@@H]3O[C@](C#N)(COC(=O)C(CC)CC)[C@@H](O)[C@H]3O)ccc12` [Compound 11, ((2R,3S,4R,5S)-2-cyano-5-(4-(2-ethylbutanamido)pyrrolo[2,1-f][1,2,4]triazin-7-yl)-3,4-dihydroxytetrahydrofuran-2-yl)methyl 2-ethylbutanoate], the half-life at 2 μM was 37 min in data set [1] and 56 min in data set [2]. For the same molecule, in data set [3], the EC50 stood at 24.6 µM.

As to `CC(C)[C@H](N)C(=O)OC[C@@]1(C#N)O[C@@H](c2ccc3c(N)ncnn23)[C@H](O)[C@@H]1O` [Compound 12, ((2R,3S,4R,5S)-5-(4-aminopyrrolo[2,1-f][1,2,4]triazin-7-yl)-2-cyano-3,4-dihydroxytetrahydrofuran-2-yl)methyl L-valinate], the half-life at 2 μM in data set [1] is 9 min; in data set [2], 2 min. Also, the EC50 in data set [3] turned out to be 10.7 µM.

For the molecule `CC(C)(C)CC(=O)OC[C@@]1(C#N)O[C@@H](c2ccc3c(N)ncnn23)[C@H](O)[C@@H]1O` [Compound 13, ((2R,3S,4R,5S)-5-(4-aminopyrrolo[2,1-f][1,2,4]triazin-7-yl)-2-cyano-3,4-dihydroxytetrahydrofuran-2-yl)methyl 3,3-dimethylbutanoate], the values for the half-life at 2 μM in data set [1] and in data set [2] were 185 min and 789 min, respectively. Also, the EC50 in data set [3] was 8.59 µM.

For `Cc1ccc(C(=O)OC[C@@]2(C#N)O[C@@H](c3ccc4c(N)ncnn34)[C@H](O)[C@@H]2O)cc1` [Compound 14, ((2R,3S,4R,5S)-5-(4-aminopyrrolo[2,1-f][1,2,4]triazin-7-yl)-2-cyano-3,4-dihydroxytetrahydrofuran-2-yl)methyl 4-methylbenzoate], the half-life at 2 μM in data set [1] turned out to be 6 min; in data set [2] it was 25 min. Besides, in data set [3], the EC50 was 9.6 µM.

As for `CC1(C(=O)OC[C@@]2(C#N)O[C@@H](c3ccc4c(N)ncnn34)[C@H](O)[C@@H]2O)CC1` [Compound 15, ((2R,3S,4R,5S)-5-(4-aminopyrrolo[2,1-f][1,2,4]triazin-7-yl)-2-cyano-3,4-dihydroxytetrahydrofuran-2-yl)methyl 1-methylcyclopropane-1-carboxylate], the half-life at 2 μM was 23 min in data set [1] and 104 min in data set [2]. Further, in data set [3], the EC50 was found to be 8.77 µM.

Consider `N#C[C@]1(COC(=O)CC2CCC2)O[C@@H](c2ccc3c(N)ncnn23)[C@H](O)[C@@H]1O` [Compound 16, ((2R,3S,4R,5S)-5-(4-aminopyrrolo[2,1-f][1,2,4]triazin-7-yl)-2-cyano-3,4-dihydroxytetrahydrofuran-2-yl)methyl 2-cyclobutylacetate], for which the half-life at 2 μM is 4 min in data set [1] and 14 min in data set [2]. Further, the EC50 in data set [3] turned out to be 8.36 µM.

`CC1(C)CC(C(=O)OC[C@@]2(C#N)O[C@@H](c3ccc4c(N)ncnn34)[C@H](O)[C@@H]2O)C1` [Compound 17, ((2R,3S,4R,5S)-5-(4-aminopyrrolo[2,1-f][1,2,4]triazin-7-yl)-2-cyano-3,4-dihydroxytetrahydrofuran-2-yl)methyl 3,3-dimethylcyclobutane-1-carboxylate]: the half-life at 2 μM in data set [1] came out at 3 min; in data set [2], 13 min. Besides, in data set [3], the EC50 came out at 8.7 µM.
